Data published in patent publication US20230192701A1, “BICYCLIC KINASE INHIBITORS AND USES THEREOF” (iOmx Therapeutics AG, priority 2020, published 2023).
Converted amounts (≈) assume the structure as drawn.

Columns and labels:
[1] = molecular target: SIK2 (Homo sapiens, UniProt Q9H0K1); assay: radiometric protein kinase assay (33PanQinase Activity Assay), SIK2; type: biochemical; conditions: ATP 1.0 μM, substrate RBER-CHKtide
Description: The IC50s of the compounds against the SIK family of protein-serine/threonine kinases (SIK2 and SIK3) were determined as followed. Briefly, a radiometric protein kinase assay (33PanQinase® Activity Assay) was used for measuring the kinase activity of the two protein kinases. The kinase assays were performed in 96-well FlashPlates™ from PerkinElmer (Boston, Mass., USA) in a 50 uL reaction volume. The reaction cocktail was pipetted in four steps in the following order: • […] (standard buffer/[gamma-33P]-ATP) • 10 uL of ATP solution (in water) • 5 uL of test compound (in 10% DMSO) • 20 uL enzyme/substrate mix
The following amounts of enzyme and applicable substrate were used per well:
The reaction cocktails were incubated at 30 °C for 60 minutes. The reaction was stopped with 50 uL of 2% (v/v) H3PO4, plates were aspirated and washed two times with 200 μL 0.9% (w/v) NaCl. Incorporation of 33Pi was determined with a microplate scintillation counter (Microbeta, Wallac). All assays were performed with a BeckmanCoulter/SAGIAN™ Core System.

[2] = Kinetic solubility assay; type: physicochemical; conditions: aqueous buffer, kinetic from dmso stock; PBS buffer pH 7.4, 1.0% DMSO, 24 h at RT
Description: The Kinetic solubility assay was conducted as follows. 4 uL compound of the 50 mM DMSO stock was added to deep well plate containing 396 uL PBS buffer (pH 7.4). The DMSO content in the sample was 1.0%, and the compound concentration 500 μM. The sample plate was vortexed at 800 rpm for 24 h at RT on a thermomixer. At the end of the incubation period, the sample plate was centrifuged at 4000 rpm for 10 mins. 3 uL of supernatant was transferred to well containing 297 uL of ISTD in Acetonitrile water:50:50, v/v and analysed in LC-MS/MS against a calibration curve (CC).

[3] = Human liver microsomal stability; type: in vitro ADME; conditions: pH 7.4; human liver microsomes, NADPH, 37°C
Description: Briefly, human and liver microsomal stability was determined by pre-incubation of 2.5 uL compound and 75 uL of the respective liver microsomes in potassium phosphate buffer (pH 7.4) at 37° C. After adding of NADPH as cofactor and further incubation at 37° C. for 60 min, acetonitrile containing internal standard was added, and the sample was vortexed for 5 min at 1200 rpm and then centrifuged 10 min at 4000 rpm.
(§1) LC-MS/MS was performed for all assays using a C18 column (50*4.6 mm, 5 um) for the CaCo2 assay, or a C18 column (50*4.6 mm, 4 um) for the other assays. The mobile phases used were 10 mM Ammonium Acetate with 0.1% Formic acid (aqueous) and 100% Acetonitrile (organic).

[4] = Human hepatocyte stability; type: in vitro ADME; conditions: human hepatocytes, 37°C
Description: (§2) Determination of human and mice hepatocyte stability was conducted as follows. 200 uL of the respective hepatocyte cell suspension (2×10e6/ml) was preincubated at 37° C. for 10 min. Then, 200 uL of a 2 uM working stock of the test compound was added to the hepatocyte cell suspension, and the mixture was further incubated at 37° C. and 500 rpm. The reaction was stopped at 30, 60 and 120 min by precipitating 50 uL of the incubation mixture with 200 uL of acetonitrile. Samples were vortexed for 5 min at 1200 rpm and centrifuged at 4000 rpm for 10 min. Intrinsic clearance and half-life were analysed using LC-MS/MS.
as §1

[5] = Mouse hepatocyte stability; type: in vitro ADME; conditions: mouse hepatocytes, 37°C
Description: as §2, §1

[6] = CaCo2 permeability and efflux assay; type: in vitro ADME; conditions: human, Caco-2; CaCo2, mean efflux ratio
Description: (§3) To determine apparent permeability of the compounds an assay using a Caco-2 cells monolayer (cultured for 21d) in a 24-well format (poly carbonate high pore density plate with 0.4 μm pore size and a 0.7 cm2 active membrane area; Millipore) was performed as followed. 800 uL of DMEM was added to the basal compartment of the 24 well-plate and 60000 CaCo2 cells/well were seeded in the apical wells and incubated in a CO2 incubator at 37° C. for proliferation of cells. Apical to Basal permeability was determined by adding 400 uL of test compound to the apical well and 800 uL of HBSS buffer with 2% BSA to the basal well. 25 uL of basal sample was collected after 120 min and processed as stated below. Basal to Apical permeability was determined by adding 800 uL of test compound to basal well and 400 uL of HBSS buffer with 2% BSA to apical well. 25 uL of apical sample was collected after 120 min and processed as stated below. The samples were processed by diluting the donor samples 1:1 with HBSS containing 2% BSA and the receiver samples 1:1 with HBSS buffer. Samples were then precipitated with 200 uL of acetonitrile containing internal standard, vortexed for 5 min at 1000 rpm, and centrifuged at 4000 rpm for 20 min. 150 uL of supernatant was diluted with 150 uL of water and submitted for LC-MS/MS analysis, and Bi-directional (A-B and B-A) apparent permeability (Papp) was calculated.
as §1

[7] = system: Caco-2 cells monolayer; assay: CaCo2 permeability and efflux assay; type: in vitro ADME; conditions: CaCo2, apical to basal, 120 min
Description: as §3, §1

[8] = pharmacokinetic study, plasma level after single po or iv administration; type: in vivo, male CD1 mice; conditions: mice
Description: Screening PK properties of compounds of Formula (I) are additionally determined, including plasma and free plasma concentration, as well as Cmax. For example, the free concentration of compound after a dose of eg 30 mg/kg po (per os) administered mice can be determined for certain time points after administrations.
To further investigate PK properties of kinase inhibitors of Formula (I), the compounds are tested for in vivo drug exposure and potency in a full pharmacokinetic study with oral administration (per os, po).
The experimental procedure and the determination of the pharmacokinetic parameters are investigated after single administration of each compound per gavage in male CD1 mice (Intonation Research Laboratories (Hyderabad, India)). The compounds are diluted in 5% DMSO+5% Solutol+90% water. Plasma level (eg sampling 0.25 h; 0.5 h; 1 h; 1.5 h; 2 h; 4 h; 6 h; 12 h; 24 h after drug administration) of the compounds are analysed by LC-MS/MS and pharmacokinetic parameters are determined using non-compartmental analysis and nominal dose levels of eg 30 mg/kg po and 1 mg/kg iv. Three animals are analysed per time point and each mouse is used for three plasma samplings in total.

Chain of SIK2 (Q9H0K1 whole entry): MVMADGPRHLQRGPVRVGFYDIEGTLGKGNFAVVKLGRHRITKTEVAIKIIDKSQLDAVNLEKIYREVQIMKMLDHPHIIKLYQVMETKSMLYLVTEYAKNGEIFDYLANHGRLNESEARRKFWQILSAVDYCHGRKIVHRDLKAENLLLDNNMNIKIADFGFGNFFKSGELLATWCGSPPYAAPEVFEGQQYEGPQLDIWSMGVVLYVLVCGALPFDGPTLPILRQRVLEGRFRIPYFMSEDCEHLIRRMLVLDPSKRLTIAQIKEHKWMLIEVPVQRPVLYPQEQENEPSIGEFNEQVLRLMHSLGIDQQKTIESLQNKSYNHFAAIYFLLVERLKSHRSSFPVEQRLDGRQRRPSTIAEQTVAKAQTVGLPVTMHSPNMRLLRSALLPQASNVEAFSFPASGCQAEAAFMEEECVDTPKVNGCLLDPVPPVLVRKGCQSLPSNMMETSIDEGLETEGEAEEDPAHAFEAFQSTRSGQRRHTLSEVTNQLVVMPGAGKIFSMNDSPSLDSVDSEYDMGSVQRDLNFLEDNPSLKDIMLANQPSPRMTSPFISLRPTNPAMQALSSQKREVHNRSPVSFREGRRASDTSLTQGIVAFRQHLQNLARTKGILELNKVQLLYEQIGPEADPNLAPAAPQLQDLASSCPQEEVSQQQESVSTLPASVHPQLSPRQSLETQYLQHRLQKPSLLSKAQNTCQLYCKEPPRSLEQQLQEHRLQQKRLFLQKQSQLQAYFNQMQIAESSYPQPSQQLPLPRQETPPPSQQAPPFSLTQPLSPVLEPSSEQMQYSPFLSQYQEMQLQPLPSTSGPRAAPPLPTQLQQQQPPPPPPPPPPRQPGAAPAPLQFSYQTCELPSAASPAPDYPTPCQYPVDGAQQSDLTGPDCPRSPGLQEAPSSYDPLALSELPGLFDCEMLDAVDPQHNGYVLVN

IC50 [1]: 100 to 200 nM | solubility kinetic at 24 h [2]: 6.9 µM (≈ 4.18 µg/mL) | half-life [3]: 0.3 h | half-life at 1 uM [4]: 11 h | half-life at 1 uM [5]: 1.73 h | efflux ratio at 120 min [6]: 2.4 | A > B(10 EE-06 cm/s) [7]: 10.5 10 EE-06 cm/s | compound detectable in plasma after 24 h ([8]; 1 mg/kg iv): detectable after 24 hours | compound detectable in plasma after 24 h ([8]; 30 mg/kg po): detectable after 24 hours
SMILES: COc1ccc(N2C(=O)N(c3c(C)csc3Cl)Cc3cnc(Nc4ccc(C5CCN(C)CC5)cc4OC)nc32)nc1 [AA1, 3-(2-chloro-4-methylthiophen-3-yl)-7-((2-methoxy-4-(1-methylpiperidin-4-yl)phenyl)amino)-l-(5-methoxypyridin-2-yl)-3,4-dihydropyrimido[4,5-d]pyrimidin-2(1H)-one]
